Laboratory results as given in ChEMBL document CHEMBL1201862, “PubChem BioAssay data set” (2004).
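Each compound was tested at five concentrations against cells in 96-well plates for 48 hours. Abbreviation: GI50, concentration required for 50% inhibition of growth.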 The source made the active and inactive calls. Rule as the data show it: active = GI50 up to about 1.1 µM and inactive = higher.

What was measured:
Assay in all cases: NCI-60 cell line screen, 48 h
[1] = tested on: NCI-H522
[2] = tested on: SK-MEL-28
[3] = tested on: U-251
[4] = tested on: Hs-578T
[5] = tested on: UACC-62
[6] = tested on: SW-620
[7] = tested on: MDA-MB-435
[8] = tested on: OVCAR-8
[9] = tested on: T47D
[10] = tested on: MDA-N
[11] = tested on: NCI/ADR-RES
[12] = tested on: MDA-MB-231
[13] = tested on: HOP-92
[14] = tested on: 786-0
[15] = tested on: MCF7
[16] = tested on: NCI-H226

Measured: GI50

COc1cc(CCN)c(OC)c(OC)c1
inactive: [1] > 100 µM | [2] > 100 µM | [3] > 100 µM | [4] > 100 µM | [5] > 100 µM | [6] 36.2 µM | [7] 24.8 µM | [8] > 100 µM | [9] > 100 µM | [10] 39.2 µM | [11] > 100 µM | [12] > 100 µM | [13] 62.4 µM | [14] > 100 µM | [15] 42.3 µM

CCOC(=O)c1nc2cc(C(F)(F)F)ccc2nc1Nc1ccc(C(=O)NC(C(=O)OCC)C(=O)OCC)cc1
inactive: [1] 18.7 µM | [2] 14.1 µM | [3] 14 µM | [4] 12.4 µM | [5] 11.5 µM | [6] 40.8 µM | [7] 33.6 µM | [10] > 10 µM | [12] 17.4 µM | [13] 27.4 µM | [14] 14.3 µM | [15] 19.5 µM | [16] 13.7 µM

COc1ccc(NC(=O)CC(=O)N2N=C(C)C(/N=N\c3ccc(S(=O)(=O)c4ccc(/N=N/C5C(=O)N(C(=O)CC(=O)Nc6ccc(OC)cc6)N=C5C)cc4)cc3)C2=O)cc1 (stereo unspecified)
inactive: [1] > 100 µM | [2] > 100 µM | [3] > 100 µM | [4] 25 µM | [5] > 100 µM | [6] > 100 µM | [7] > 100 µM | [8] > 100 µM | [9] > 100 µM | [10] > 100 µM | [11] > 100 µM | [12] > 100 µM | [13] 63.5 µM | [14] > 100 µM | [15] > 100 µM | [16] > 100 µM

COc1cc(O)cc(O)c1C(=O)CC(Cl)(Cl)Cl
inactive: [1] > 100 µM | [2] > 100 µM | [3] > 100 µM | [4] > 100 µM | [5] > 100 µM | [6] > 100 µM | [7] > 100 µM | [8] > 100 µM | [9] > 100 µM | [11] > 100 µM | [12] > 100 µM | [13] > 100 µM | [14] > 100 µM | [15] > 100 µM | [16] > 100 µM

CC1(C)OCC(CO)(CO)CO1
inactive: [1] > 100 µM | [2] > 100 µM | [3] > 100 µM | [4] > 100 µM | [6] > 100 µM | [7] > 100 µM | [8] > 100 µM | [9] > 100 µM | [10] > 100 µM | [11] > 100 µM | [12] > 100 µM | [13] > 100 µM | [15] > 100 µM | [16] > 100 µM

CC1(C)N=C(/C(Cl)=[N+](/[O-])C(=O)c2ccc(Cl)cc2)C(C)(C)N1O
inactive: [2] 18.5 µM | [3] 26.4 µM | [4] 36.2 µM | [5] > 10 µM | [6] 20.3 µM | [7] 22.3 µM | [8] 20.4 µM | [9] 38.3 µM | [10] 17.1 µM | [11] 25.9 µM | [12] 21.8 µM | [13] 17.3 µM | [15] 17.3 µM | [16] 25.9 µM

CCOC(=O)C1=NN(c2ccc(C)cc2)C2=CC(C)=NN(C)C(=S)N21
inactive: [1] 12.2 µM | [2] > 100 µM | [3] 38.5 µM | [4] 48.5 µM | [5] 31.9 µM | [6] 54.2 µM | [7] > 100 µM | [8] 42.9 µM | [9] 26.4 µM | [10] > 100 µM | [11] > 100 µM | [12] 82.4 µM | [13] > 10 µM | [15] > 10 µM

Oc1nc2ccccc2c2oc3ccccc3c12
inactive: [1] > 100 µM | [2] > 100 µM | [3] > 100 µM | [4] 37.9 µM | [5] > 100 µM | [6] > 100 µM | [7] > 100 µM | [8] > 100 µM | [9] 16.1 µM | [10] > 100 µM | [11] > 100 µM | [12] 83.8 µM | [13] 23.2 µM | [15] > 100 µM | [16] > 100 µM

CNC(=O)OC(C)CN1c2ccccc2Sc2ccc(Cl)cc21 (stereo unspecified)
inactive: [1] > 10 µM | [2] > 10 µM | [3] > 10 µM | [4] > 10 µM | [5] > 10 µM | [6] > 10 µM | [7] > 10 µM | [8] > 10 µM | [9] > 10 µM | [10] > 10 µM | [11] > 10 µM | [12] > 10 µM | [15] > 10 µM | [16] > 10 µM

O=Nn1c2ccccc2c2cc([N+](=O)[O-])ccc21
inactive: [1] 10.9 µM | [2] 18.5 µM | [3] 16.4 µM | [4] 31.7 µM | [5] 16 µM | [6] 13.7 µM | [7] 17.1 µM | [8] 14.6 µM | [9] 31.1 µM | [10] 17.2 µM | [11] 20.2 µM | [12] 18.9 µM | [13] 14.3 µM | [15] 22.9 µM

O=C1c2cc3c(cc2CC1Cc1ccc2c(c1)CCC2)CCC3 (stereo unspecified)
inactive: [1] 24.1 µM | [2] > 100 µM | [3] 37.3 µM | [4] 32.4 µM | [5] 52 µM | [6] 45.5 µM | [7] 76 µM | [8] 81.7 µM | [9] 10.9 µM | [10] 51.4 µM | [11] 65.3 µM | [12] 26.4 µM | [15] 93.1 µM | [16] 24.2 µM

CCOC(=O)C1=C(C)NC(=O)N([N+](=O)[O-])C1c1ccccc1C(F)(F)F (stereo unspecified)
inactive: [2] 24.8 µM | [3] 69 µM | [4] 70.3 µM | [5] 49.4 µM | [6] 52.6 µM | [7] 45.1 µM | [8] 69.7 µM | [9] 35.4 µM | [10] 21.8 µM | [11] 34.1 µM | [12] > 100 µM | [13] > 100 µM | [15] 52.6 µM | [16] > 100 µM

CC(c1ccccc1)N1CCN(C(C)c2ccccc2)CC1 (stereo unspecified)
inactive: [1] > 100 µM | [2] 29 µM | [3] > 100 µM | [4] > 100 µM | [5] 40.8 µM | [6] > 100 µM | [7] 80.4 µM | [8] > 100 µM | [9] > 100 µM | [10] 45.6 µM | [11] > 100 µM | [12] > 100 µM | [13] 31.6 µM | [14] > 100 µM | [16] > 100 µM

CC1(C)N=C(c2ccccc2)SC12S[C@@H]1CCCC[C@H]1S2
inactive: [1] > 100 µM | [2] > 100 µM | [3] > 100 µM | [4] 4.57 µM | [5] > 100 µM | [6] 29.4 µM | [7] > 100 µM | [8] > 100 µM | [9] 35.8 µM | [10] 20.7 µM | [11] > 100 µM | [12] > 100 µM | [13] > 100 µM | [15] 64.4 µM | [16] > 100 µM

COc1cc([N+](=O)[O-])ccc1N1C(=O)C2c3[nH]c4ccccc4c3C3CCC(C(C)(C)C)CC3C2C1=O (stereo unspecified)
inactive: [1] 42.4 µM | [2] 9.12 µM | [3] 9.79 µM | [4] 5.6 µM | [5] 19.6 µM | [6] > 100 µM | [7] 17.4 µM | [8] 29 µM | [10] 40.6 µM | [11] 22.3 µM | [12] 14.7 µM | [13] 22 µM | [15] > 100 µM | [16] > 100 µM

CCOC(=O)C(O)(NC(=O)c1ccccc1F)C(F)(F)F (stereo unspecified)
inactive: [1] > 100 µM | [2] > 100 µM | [3] > 100 µM | [4] > 100 µM | [5] > 100 µM | [6] > 100 µM | [7] > 100 µM | [8] > 100 µM | [9] > 100 µM | [10] > 100 µM | [11] > 100 µM | [12] 2.69 µM | [13] > 100 µM | [15] > 100 µM | [16] > 100 µM

CCOC(=O)Cc1cnc(NC(NC(=O)CC)(C(F)(F)F)C(F)(F)F)s1
inactive: [1] > 100 µM | [2] > 100 µM | [3] > 100 µM | [4] > 100 µM | [5] > 100 µM | [7] > 100 µM | [9] > 100 µM | [10] > 100 µM | [12] > 100 µM | [15] > 100 µM | [16] > 100 µM

Cc1cccc(C)c1NC(=O)/C(CC(=O)CC(c1ccccc1)c1c(O)c2ccccc2oc1=O)=N/O (stereo unspecified)
inactive: [1] > 100 µM | [2] > 100 µM | [3] > 100 µM | [4] > 100 µM | [5] > 100 µM | [6] > 100 µM | [7] > 100 µM | [8] > 100 µM | [10] > 100 µM | [11] > 100 µM | [12] > 100 µM | [13] 31.3 µM | [14] > 100 µM | [15] > 100 µM | [16] > 100 µM

O=C1Nc2ccccc2N/C1=C\C(=O)C(F)F
inactive: [1] > 100 µM | [2] > 100 µM | [3] > 100 µM | [4] > 100 µM | [5] > 100 µM | [6] > 100 µM | [7] > 100 µM | [8] > 100 µM | [10] > 100 µM | [11] > 100 µM | [12] > 100 µM | [14] > 100 µM | [15] > 100 µM | [16] > 100 µM
